The values below come from BindingDB's records for doi:10.1021/jm020122x (The Royal Danish School of Pharmacy, 2002).

Each structure is given as a SMILES string.

The target of the assay is Metabotropic glutamate receptor 2 (Rattus norvegicus) (UniProt P31421). Nature of the assay: Compound was evaluated for the inhibitory activity against cloned Metabotropic glutamate receptor 2.
Chain of Metabotropic glutamate receptor 2 (Rattus norvegicus) (P31421 whole entry, looked up): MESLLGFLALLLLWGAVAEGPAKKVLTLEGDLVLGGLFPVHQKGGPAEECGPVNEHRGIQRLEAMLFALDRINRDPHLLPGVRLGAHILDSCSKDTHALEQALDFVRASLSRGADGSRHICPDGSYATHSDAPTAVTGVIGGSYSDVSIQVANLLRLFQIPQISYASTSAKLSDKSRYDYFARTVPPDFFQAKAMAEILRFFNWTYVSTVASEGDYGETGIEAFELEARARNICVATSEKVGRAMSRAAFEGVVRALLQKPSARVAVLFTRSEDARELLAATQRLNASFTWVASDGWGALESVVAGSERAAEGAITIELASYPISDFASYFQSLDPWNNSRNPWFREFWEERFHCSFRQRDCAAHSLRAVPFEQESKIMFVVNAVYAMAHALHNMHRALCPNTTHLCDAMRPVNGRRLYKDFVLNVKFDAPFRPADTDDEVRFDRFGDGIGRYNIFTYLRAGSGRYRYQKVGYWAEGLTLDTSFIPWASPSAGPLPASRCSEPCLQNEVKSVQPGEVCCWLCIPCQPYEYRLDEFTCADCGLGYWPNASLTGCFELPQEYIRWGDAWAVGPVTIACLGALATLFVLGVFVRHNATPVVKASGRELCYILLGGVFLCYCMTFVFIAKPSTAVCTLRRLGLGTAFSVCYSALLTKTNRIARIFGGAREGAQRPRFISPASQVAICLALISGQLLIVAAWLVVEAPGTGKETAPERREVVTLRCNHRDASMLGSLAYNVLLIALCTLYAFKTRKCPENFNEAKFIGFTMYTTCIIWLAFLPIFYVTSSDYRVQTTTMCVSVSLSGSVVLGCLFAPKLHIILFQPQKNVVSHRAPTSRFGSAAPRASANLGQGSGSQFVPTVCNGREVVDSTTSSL

With `Cc1o[nH]c(=O)c1CC[C@H](N)C(=O)O` [2-Amino-4-(3-hydroxy-5-methyl-isoxazol-4-yl)-butyric acid(S-homo-AMPA)], the EC50 is above 1000 µM. Then `Cc1o[nH]c(=O)c1CC[C@@H](N)C(=O)O` [(R)-2-Amino-4-(3-hydroxy-5-methyl-isoxazol-4-yl)-butyric acid], with above 1000 µM.
